The results in this text go back to US20250115620A1, “BRIDGED TRICYCLIC CARBAMOYLPYRIDONE COMPOUNDS AND USES THEREOF” (Gilead Sciences, Inc., priority 2022, published 2025).

Data set [1] concerns HIV-1 (IIIB). As to the kind of experiment: microbe, parasite or virus in culture. The data set is classed as cell-based. To be noted: Human immunodeficiency virus 1, IIIB, MT4, 120 h, read-out: MT4 EC50.
For data set [2], the system named is pLAI reporter virus. As to the kind of experiment: microbe, parasite or virus in culture. The data set is classed as cell-based, HIV. Conditions: Human immunodeficiency virus 1, MT4, 72 h.
Data set [3] can be described thus: in vitro. Conditions: human, uninfected MT-4 cells.
Setting [4] is: HIV-1 (IIIB) in MT-4 cells, 5 days incubation, Cell Titer Glo.

Each structure is given as a SMILES string. Read-outs that look alike come from different tables or passages of the source.

Usually EC50 stands for the concentration that produces a half-maximal response. As usually defined, the CC50 is the concentration that lowers cell viability or growth by half. A low value points to greater toxicity to the cells. As for `C[C@H]1CC[C@]2(COC(C)(C)O2)[C@H]2CN1C(=O)c1c(O)c(=O)c(C(=O)NCc3c(F)cc(F)cc3F)cn12` [Example 137, (3′S,4R,7′R)-12′-hydroxy-2,2,3′-trimethyl-1′,11′-dioxo-N-(2,4,6-trifluorobenzyl)-1′,4′,5′,11′-tetrahydro-3′H,7′H-spiro[[1,3]dioxolane-4,6′-[2,7]methanopyrido[1,2-a][1,4]diazonine]-10′-carboxamide], the EC50 in data set [1] (setting [4]) was 1.5 nM; in data set [2] (read-out: RLUC 50% HS EC50), 13.3 nM; in data set [2] (read-out: RLUC CCM EC50), 0.3 nM. Also, the CC50 at 5 days in data set [3] was 42400 nM.
In the case of `C[C@H]1CC[C@@]2(COC(C)(C)O2)[C@H]2CN1C(=O)c1c(O)c(=O)c(C(=O)NCc3c(F)cc(F)cc3F)cn12` [Example 138, (3′S,4S,7′R)-12′-hydroxy-2,2,3′-trimethyl-1′,11′-dioxo-N-(2,4,6-trifluorobenzyl)-1′,4′,5′,11′-tetrahydro-3′H,7′H-spiro[[1,3]dioxolane-4,6′-[2,7]methanopyrido[1,2-a][1,4]diazonine]-10′-carboxamide], the figures for the EC50 in data set [1] (setting [4]), in data set [2] (read-out: RLUC 50% HS EC50) and in data set [2] (read-out: RLUC CCM EC50) were 2 nM, 13.1 nM and 0.5 nM, respectively. For the same compound, half-maximal cytotoxicity in data set [3] (CC50 at 5 days) was put at 23200 nM.
Turning to `C[C@H]1CC[C@]2(COCCO2)[C@H]2CN1C(=O)c1c(O)c(=O)c(C(=O)NCc3c(F)cc(F)cc3F)cn12` [Example 139, (2R,3′S,7′R)-12′-hydroxy-3′-methyl-1′,11′-dioxo-N-(2,4,6-trifluorobenzyl)-1′,4′,5′,11′-tetrahydro-3′H,7′H-spiro[[1,4]dioxane-2,6′-[2,7]methanopyrido[1,2-a][1,4]diazonine]-10′-carboxamide], the EC50 was 1.4 nM in data set [1] (setting [4]), 83.7 nM in data set [2] (read-out: RLUC 50% HS EC50) and 0.1 nM in data set [2] (read-out: RLUC CCM EC50). The compound also returned a CC50 at 5 days in data set [3] of 30900 nM.
On the same counts, the results for `C[C@H]1CC[C@@]2(COCCO2)[C@H]2CN1C(=O)c1c(O)c(=O)c(C(=O)NCc3c(F)cc(F)cc3F)cn12` [Example 140, (2S,3′S,7′R)-12′-hydroxy-3′-methyl-1′,11′-dioxo-N-(2,4,6-trifluorobenzyl)-1′,4′,5′,11′-tetrahydro-3′H,7′H-spiro[[1,4]dioxane-2,6′-[2,7]methanopyrido[1,2-a][1,4]diazonine]-10′-carboxamide] are 1.8 nM, 1.7 nM, 0.1 nM and 22800 nM.
In the case of `C[C@H]1CC[C@]2(COC(F)(F)O2)[C@H]2CN1C(=O)c1c(O)c(=O)c(C(=O)NCc3c(F)cc(F)cc3F)cn12` [Example 141, (3′S,4R,7′R)-2,2-difluoro-12′-hydroxy-3′-methyl-1′,11′-dioxo-N-(2,4,6-trifluorobenzyl)-1′,4′,5′,11′-tetrahydro-3′H,7′H-spiro[[1,3]dioxolane-4,6′-[2,7]methanopyrido[1,2-a][1,4]diazonine]-10′-carboxamide], the values for the EC50 in data set [1] (setting [4]), in data set [2] (read-out: RLUC 50% HS EC50) and in data set [2] (read-out: RLUC CCM EC50) were 0.9 nM, 263 nM and 0.2 nM, respectively. In addition, the CC50 at 5 days in data set [3] was 30400 nM.
For the compound `C[C@H]1CCC2(N=c3ccccc3=N2)[C@H]2CN1C(=O)c1c(O)c(=O)c(C(=O)NCc3c(F)cc(F)cc3F)cn12` [Example 142, (3′S,7′R)-12′-hydroxy-3′-methyl-1′,11′-dioxo-N-(2,4,6-trifluorobenzyl)-1′,4′,5′,11′-tetrahydro-3′H,7′H-spiro[benzo[d]imidazole-2,6′-[2,7]methanopyrido[1,2-a][1,4]diazonine]-10′-carboxamide], the values for the EC50 in data set [1], in data set [2] (read-out: RLUC 50% HS EC50) and in data set [2] (read-out: RLUC CCM EC50) were 3.9 nM, 0.7 nM and 0.5 nM, respectively. In addition, in data set [3], the CC50 at 5 days is at least 50000 nM.
As to `C[C@H]1CC[C@]2(Cc3ccccc3O2)[C@H]2CN1C(=O)c1c(O)c(=O)c(C(=O)NCc3c(F)cc(F)cc3F)cn12` [Example 143, (2S,3′S,7′R)-12′-hydroxy-3′-methyl-1′,11′-dioxo-N-(2,4,6-trifluorobenzyl)-1′,4′,5′,11′-tetrahydro-3H,3′H,7′H-spiro[benzofuran-2,6′-[2,7]methanopyrido[1,2-a][1,4]diazonine]-10′-carboxamide], the EC50 came to 1.4 nM in data set [1] (setting [4]), 78.4 nM in data set [2] (read-out: RLUC 50% HS EC50) and 0.1 nM in data set [2] (read-out: RLUC CCM EC50). The compound also had a CC50 at 5 days in data set [3] of 24400 nM.
For `C[C@H]1CC[C@@]2(Cc3ccccc3O2)[C@H]2CN1C(=O)c1c(O)c(=O)c(C(=O)NCc3c(F)cc(F)cc3F)cn12` [Example 144, (2R,3′S,7′R)-12′-hydroxy-3′-methyl-1′,11′-dioxo-N-(2,4,6-trifluorobenzyl)-1′,4′,5′,11′-tetrahydro-3H,3′H,7′H-spiro[benzofuran-2,6′-[2,7]methanopyrido[1,2-a][1,4]diazonine]-10′-carboxamide], in that order: 1.3 nM, 2.3 nM, 0.1 nM and 4810 nM.
For `COC1=NS[C@]2(CC[C@H](C)N3C[C@H]2n2cc(C(=O)NCc4ccc(F)cc4F)c(=O)c(O)c2C3=O)C1` [Example 145, (3′S,5R,7′R)—N-(2,4-difluorobenzyl)-12′-hydroxy-3-methoxy-3′-methyl-1′,11′-dioxo-1′,4′,5′,11′-tetrahydro-3′H,4H,7′H-spiro[isothiazole-5,6′-[2,7]methanopyrido[1,2-a][1,4]diazonine]-10′-carboxamide], the concentration giving a half-maximal response (EC50) in data set [1] (setting [4]) was determined as 3.8 nM; in data set [2] (read-out: RLUC 50% HS EC50), 7.5 nM; in data set [2] (read-out: RLUC CCM EC50) it was 1.1 nM. Further, the CC50 at 5 days in data set [3] is at least 50000 nM.
Turning to `COc1ccc(CN2C(C)=NO[C@@]23CC[C@H](C)N2C[C@H]3n3cc(C(=O)NCc4ccc(F)cc4F)c(=O)c(O)c3C2=O)cc1` [Example 147, (3′S,5R,7′R)—N-(2,4-difluorobenzyl)-12′-hydroxy-4-(4-methoxybenzyl)-3,3′-dimethyl-1′,11′-dioxo-1′,4′,5′,11′-tetrahydro-3′H,4H,7′H-spiro[[1,2,4]oxadiazole-5,6′-[2,7]methanopyrido[1,2-a][1,4]diazonine]-10′-carboxamide], the figures for the EC50 in data set [1] (setting [4]), in data set [2] (read-out: RLUC 50% HS EC50) and in data set [2] (read-out: RLUC CCM EC50) were 4.1 nM, 12.3 nM and 1.3 nM, respectively. This compound also had a CC50 at 5 days in data set [3] of 7530 nM.
For `CC1=NO[C@@]2(CC[C@H](C)N3C[C@H]2n2cc(C(=O)NCc4ccc(F)cc4F)c(=O)c(O)c2C3=O)N1` [Example 148, (3′S,5R,7′R)—N-(2,4-difluorobenzyl)-12′-hydroxy-3,3′-dimethyl-1′,11′-dioxo-1′,4′,5′,11′-tetrahydro-3′H,4H,7′H-spiro[[1,2,4]oxadiazole-5,6′-[2,7]methanopyrido[1,2-a][1,4]diazonine]-10′-carboxamide], in that order: 3.4 nM, 21 nM, 1.1 nM and at least 50000 nM.
On the same counts, the results for `CC1=NO[C@@]2(CC[C@H](C)N3C[C@H]2n2cc(C(=O)NCc4ccc(F)cc4F)c(=O)c(O)c2C3=O)N1C` [Example 149a, (3′S,5R,7′R)—N-(2,4-difluorobenzyl)-12′-hydroxy-3,3′,4-trimethyl-1′,11′-dioxo-1′,4′,5′,11′-tetrahydro-3′H,4H,7′H-spiro[[1,2,4]oxadiazole-5,6′-[2,7]methanopyrido[1,2-a][1,4]diazonine]-10′-carboxamide] are 2 nM, 4.8 nM, 0.8 nM and at least 50000 nM.
Turning to `CC1=N[C@]2(CC[C@H](C)N3C[C@H]2n2cc(C(=O)NCc4ccc(F)cc4F)c(=O)c(O)c2C3=O)ON1C` [Example 149b, (3′S,5R,7′R)—N-(2,4-difluorobenzyl)-12′-hydroxy-2,3,3′-trimethyl-1′,11′-dioxo-1′,4′,5′,11′-tetrahydro-2H,3′H,7′H-spiro[[1,2,4]oxadiazole-5,6′-[2,7]methanopyrido[1,2-a][1,4]diazonine]-10′-carboxamide], the EC50 came out at 1.4 nM in data set [1] (setting [4]), 5.7 nM in data set [2] (read-out: RLUC 50% HS EC50) and 0.4 nM in data set [2] (read-out: RLUC CCM EC50). Further, the half-maximal cytotoxic concentration (CC50) at 5 days in data set [3] amounted to 39100 nM.
Turning to `[2H]C([2H])([2H])OC1=NO[C@@]2(CC[C@H](C)N3C[C@H]2n2cc(C(=O)NCc4ccc(F)cc4F)c(=O)c(O)c2C3=O)C1` [Example 153, (3′S,5S,7′R)—N-(2,4-difluorobenzyl)-12′-hydroxy-3-(methoxy-d3)-3′-methyl-1′,11′-dioxo-1′,4′,5′,11′-tetrahydro-3′H,4H,7′H-spiro[isoxazole-5,6′-[2,7]methanopyrido[1,2-a][1,4]diazonine]-10′-carboxamide], the EC50 in data set [1] (setting [4]) was found to be 0.9 nM; in data set [2] (read-out: RLUC 50% HS EC50) it was 16.1 nM; in data set [2] (read-out: RLUC CCM EC50) it was 0.2 nM. Moreover, the CC50 at 5 days in data set [3] is 17600 nM.
For the compound `C[C@H]1CC[C@]2(CC(S(C)(=O)=O)=NO2)[C@H]2CN1C(=O)c1c(O)c(=O)c(C(=O)NCc3c(F)cc(F)cc3F)cn12` [Example 154, (3′S,5S,7′R)-12′-hydroxy-3′-methyl-3-(methylsulfonyl)-1′,11′-dioxo-N-(2,4,6-trifluorobenzyl)-1′,4′,5′,11′-tetrahydro-3′H,4H,7′H-spiro[isoxazole-5,6′-[2,7]methanopyrido[1,2-a][1,4]diazonine]-10′-carboxamide], the half-maximal effective concentration (EC50) in data set [1] (setting [4]) is 4.2 nM; in data set [2] (read-out: RLUC 50% HS EC50), 22.1 nM; in data set [2] (read-out: RLUC CCM EC50), 1.2 nM. Moreover, the CC50 at 5 days in data set [3] is 4140 nM.
For `CC1=NO[C@@]2(CC[C@H](CF)N3C[C@H]2n2cc(C(=O)NCc4ccc(F)cc4F)c(=O)c(O)c2C3=O)C1` [Example 155, (3′R,5S,7′R)—N-(2,4-difluorobenzyl)-3′-(fluoromethyl)-12′-hydroxy-3-methyl-1′,11′-dioxo-1′,4′,5′,11′-tetrahydro-3′H,4H,7′H-spiro[isoxazole-5,6′-[2,7]methanopyrido[1,2-a][1,4]diazonine]-10′-carboxamide], in that order: 1 nM, 59.8 nM, 0.5 nM and 28400 nM.
